From patent US8754226B2, “Piperidinyl-substituted lactams as GPR119 modulators” (Array BioPharma Inc., priority 2010, dated 2014)

System: modified version of the GPR119 receptor (94% identity to human receptor)
Assay: cAMP production assay (LANCE cAMP kit, TR-FRET) in HEK-293 cells
Type: cell-based
Settings: for cAMP production in HEK-293 cells: HEK-293 cells stably expressing modified GPR119, test compounds 0.2 nM to 10 μM, one-hour incubation at ambient temperature; for Fold over baseline: increase in cAMP relative to basal levels, agonist activity if 1.5-fold or greater
Method in brief: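 Doxycycline-induced (1 μg/mL, overnight) HEK-293 cells expressing modified GPR119 were thawed, 2000 cells/well, and exposed to compounds (0.2 nM-10 μM final, 0.5% DMSO) for 1 h at ambient temperature in HBSS/HEPES/BSA. cAMP was measured by LANCE TR-FRET against a standard curve. Agonism was defined as ≥1.5-fold over basal.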

SMILES: CS(=O)(=O)c1cc(F)c(N[C@H]2CCN(C3CCN(c4ccc(C(F)(F)F)cn4)CC3)C2=O)cc1F [Example 100, (S)-3-(2,5-difluoro-4-(methylsulfonyl)phenylamino)-1-(1-(5-(trifluoromethyl)pyridin-2-yl)piperidin-4-yl)pyrrolidin-2-one]
- cAMP production in HEK-293 cells: 8.4 nmol
- Fold over baseline: 2.6

SMILES: Cc1cnc(N2CCC(N3CCC[C@H](Nc4ccc(S(C)(=O)=O)cc4F)C3=O)CC2)nc1 [Example 43, (S)-3-(2-fluoro-4-(methylsulfonyl)phenylamino)-1′-(5-methylpyrimidin-2-yl)-[1,4′-bipiperidin]-2-one]
- cAMP production in HEK-293 cells: 6.9 nmol
- Fold over baseline: 1.7

SMILES: CS(=O)(=O)c1ccc(N[C@H]2CCCN(C3CCN(c4ncc(C(F)(F)F)cn4)CC3)C2=O)c(F)c1 [Example 41, (S)-3-(2-fluoro-4-(methyl-sulfonyl)phenylamino)-1′-(5-(trifluoromethyl)pyrimidin-2-yl)-1,4′-bipiperidin-2-one]
- cAMP production in HEK-293 cells: 7.4 nmol
- Fold over baseline: 1.7

SMILES: O=C1[C@@H](Oc2ccc(-n3cncn3)cc2)CCN1C1CCN(c2ncc(C(F)(F)F)cc2Cl)CC1 [Example 141, (S)-3-(4-(1H-1,2,4-triazol-1-yl)phenoxy)-1-(1-(3-chloro-5-(trifluoromethyl)pyridin-2-yl)piperidin-4-yl)pyrrolidin-2-one]
- cAMP production in HEK-293 cells: 15.5 nmol
- Fold over baseline: 3.7

SMILES: O=C1[C@@H](Oc2ccc(-n3cnnn3)cc2)CCN1C1CCN(c2ncc(C(F)(F)F)cc2Cl)CC1 [Example 137, (S)-3-(4-(1H-tetrazol-1-yl)phenoxy)-1-(1-(3-chloro-5-(trifluoro-methyl)pyridin-2-yl)piperidin-4-yl) pyrrolidin-2-one]
- cAMP production in HEK-293 cells: 31.7 nmol
- Fold over baseline: 6.5

SMILES: O=C1[C@@H](Nc2ncc(C(F)(F)F)cc2Cl)CCCN1C1CCN(c2cnc(Cl)cn2)CC1 [Example 75, (S)-3-(3-chloro-5-(trifluoromethyl)pyridin-2-ylamino)-1′-(5-chloropyrazin-2-yl)-[1,4′-bipiperidin]-2-one]
- cAMP production in HEK-293 cells: 9.1 nmol
- Fold over baseline: 2.5

SMILES: CS(=O)(=O)c1ccc(N[C@@H]2CCN(C3CCN(c4cnc(Cl)cn4)CC3)C2=O)c(F)c1 [Example 118, (R)-1-(1-(5-chloropyrazin-2-yl)piperidin-4-yl)-3-(2-fluoro-4-(methylsulfonyl)phenyl-amino)pyrrolidin-2-one]
- cAMP production in HEK-293 cells: 40.6 nmol
- Fold over baseline: 3.4

SMILES: CS(=O)(=O)c1ccc(N[C@H]2CCN(C3CCN(c4ncc(Cl)cc4Cl)CC3)C2=O)c(F)c1 [Example 109, (S)-1-(1-(3,5-dichloropyridin-2-yl)piperidin-4-yl)-3-(2-fluoro-4-(methylsulfonyl)phenyl-amino)pyrrolidin-2-one]
- cAMP production in HEK-293 cells: 15.8 nmol
- Fold over baseline: 2.9

SMILES: CCc1cnc(N2CCC(N3CCC(Nc4ccc(S(C)(=O)=O)cc4F)C3=O)CC2)c(C)c1 (stereo not drawn) [Example 28, 1-(1-(5-ethyl-3-methylpyridin-2-yl)piperidin-4-yl)-3-(2-fluoro-4-(methylsulfonyl)phenylamino)pyrrolidin-2-one]
- cAMP production in HEK-293 cells: 39.4 nmol
- Fold over baseline: 4.0

SMILES: Cn1cc(-c2cnc(N3CCC(N4CC[C@H](Nc5ccc(S(C)(=O)=O)cc5F)C4=O)CC3)nc2)cn1 [Example 33, (S)-3-(2-fluoro-4-(methylsulfonyl)phenylamino)-1-(1-(5-(1-methyl-1H-pyrazol-4-yl)pyrimidin-2-yl)piperidin-4-yl)pyrrolidin-2-one]
- cAMP production in HEK-293 cells: 15.9 nmol
- Fold over baseline: 3.3

SMILES: CCS(=O)(=O)c1ccc(N[C@H]2CCN(C3CCN(c4cnc(Cl)cn4)CC3)C2=O)cn1 [Example 128, (S)-1-(1-(5-chloropyrazin-2-yl)piperidin-4-yl)-3-(6-(ethylsulfonyl)pyridin-3-ylamino)pyrrolidin-2-one]
- cAMP production in HEK-293 cells: 16.6 nmol
- Fold over baseline: 3.4

SMILES: O=C1[C@@H](Oc2ccc3[nH]ncc3c2)CCN1C1CCN(c2cnc(Cl)cn2)CC1 [Example 74, (S)-3-(1H-indazol-5-yloxy)-1-(1-(5-chloropyrazin-2-yl)piperidin-4-yl)pyrrolidin-2-one]
- cAMP production in HEK-293 cells: 8.6 nmol
- Fold over baseline: 2.2

SMILES: CS(=O)(=O)c1cc(F)c(O[C@H]2CCN(C3CCN(c4ncc(C(F)(F)F)cc4F)CC3)C2=O)cc1F [Example 166, (S)-3-(2,5-difluoro-4-(methylsulfonyl)phenoxy)-1-(1-(3-fluoro-5-(trifluoromethyl)pyridin-2-yl)piperidin-4-yl)pyrrolidin-2-one]
- cAMP production in HEK-293 cells: 15.3 nmol
- Fold over baseline: 3.6

SMILES: Cc1cc(S(C)(=O)=O)ncc1N[C@H]1CCN(C2CCN(c3ncc(Cl)cc3Cl)CC2)C1=O [Example 125, (S)-1-(1-(3,5-dichloro-pyridin-2-yl)piperidin-4-yl)-3-(4-methyl-6-(methylsulfonyl)pyridin-3-ylamino)pyrrolidin-2-one]
- cAMP production in HEK-293 cells: 9.0 nmol
- Fold over baseline: 2.0

SMILES: O=C1[C@@H](Nc2ccc(S(=O)(=O)C3CC3)nc2)CCN1C1CCN(c2cnc(Cl)cn2)CC1 [Example 124, (S)-1-(1-(5-chloropyrazin-2-yl)piperidin-4-yl)-3-(6-(cyclopropylsulfonyl)pyri-din-3-ylamino)pyrrolidin-2-one]
- cAMP production in HEK-293 cells: 14.1 nmol
- Fold over baseline: 3.6

SMILES: CS(=O)(=O)c1ccc(N[C@H]2CCCN(C3CCN(c4ncc(C(F)(F)F)cc4F)CC3)C2=O)c(F)c1 [Example 146, (S)-3-(2-fluoro-4-(methylsulfonyl)phenyl-amino)-1′-(3-fluoro-5-(trifluoromethyl)pyridin-2-yl)-1,4′-bipiperidin-2-one]
- cAMP production in HEK-293 cells: 34.6 nmol
- Fold over baseline: 2.6

SMILES: CCc1cnc(N2CCC(N3CCC[C@H](Nc4ccc(S(C)(=O)=O)c(Cl)c4)C3=O)CC2)nc1 [Example 56, (S)-3-(3-chloro-4-(methylsulfonyl)phen-ylamino)-1′-(5-ethylpyrimidin-2-yl)-[1,4′-bipiperidin]-2-one]
- cAMP production in HEK-293 cells: 18.0 nmol
- Fold over baseline: 2.4

SMILES: CS(=O)(=O)c1cc(F)c(N[C@H]2CCCCN(C3CCN(c4cnccn4)CC3)C2=O)cc1F.Cl [Example 83, (S)-3-(2,5-difluoro-4-(methylsulfonyl)phenylamino)-1-(1-(pyrazin-2-yl)piperidin-4-yl)azepan-2-one hydrochloride]
- cAMP production in HEK-293 cells: 13.0 nmol
- Fold over baseline: 2.9

SMILES: CS(=O)(=O)c1ccc(N[C@H]2CCN(C3CCN(c4ncc(C(F)(F)F)cc4Cl)CC3)C2=O)c(F)c1 [Example 107, (S)-1-(1-(3-chloro-5-(trifluoromethyl)pyridin-2-yl)piperidin-4-yl)-3-(2-fluoro-4-(methylsulfonyl)phenylamino)pyrrolidin-2-one]
- cAMP production in HEK-293 cells: 20.9 nmol
- Fold over baseline: 3.2

SMILES: CS(=O)(=O)c1ccc(N[C@H]2CCN(C3CCN(c4cnc(C(F)(F)F)cn4)CC3)C2=O)c(F)c1 [Example 13, (S)-3-(2-fluoro-4-(methylsulfonyl)phenylamino)-1-(1-(5-(trifluoromethyl)pyrazin-2-yl)piperidin-4-yl)pyrrolidin-2-one]
- cAMP production in HEK-293 cells: 24.8 nmol
- Fold over baseline: 4.4

SMILES: CS(=O)(=O)c1cc(F)c(O[C@H]2CCN(C3CCN(c4ncc(-c5ccccc5)cn4)CC3)C2=O)cc1F [Example 92, S-3-(2,5-difluoro-4-(methylsulfonyl)phenoxy)-1-(1-(5-phenylpyrimidin-2-yl)piperidin-4-yl)pyrrolidin-2-one]
- cAMP production in HEK-293 cells: 16.6 nmol
- Fold over baseline: 3.0

SMILES: CC1(C)CN(c2cnc(Cl)cn2)CCC1N1CC[C@H](Nc2ccc(S(C)(=O)=O)cc2F)C1=O (stereo partly drawn) [Example 162, (3S)-1-(1-(5-chloropyrazin-2-yl)-3,3-dimethylpiperidin-4-yl)-3-(2-fluoro-4-(methylsulfonyl)phenylamino)pyrrolidin-2-one]
- cAMP production in HEK-293 cells: 16.2 nmol
- Fold over baseline: 2.8

SMILES: Cc1ccccc1-c1cnc(N2CCC(N3CCC[C@H](Nc4cc(F)c(S(C)(=O)=O)cc4F)C3=O)CC2)cn1 [Example 61, (S)-3-(2,5-difluoro-4-(methylsulfonyl)phenylamino)-1′-(5-o-tolylpyrazin-2-yl)-[1,4′-bipiperidin]-2-one]
- cAMP production in HEK-293 cells: 19.6 nmol
- Fold over baseline: 3.1

SMILES: CS(=O)(=O)c1ccc(N[C@H]2CCN(C3CCN(c4cnc(Br)cn4)CC3)C2=O)c(F)c1 [Example 12, (S)-1-(1-(5-bromopyrazin-2-yl)piperidin-4-yl)-3-(2-fluoro-4-(methylsulfonyl)phenyl-amino)pyrrolidin-2-one]
- cAMP production in HEK-293 cells: 23.4 nmol
- Fold over baseline: 3.8

SMILES: CCc1cnc(N2CCC(N3CCC(Oc4ccc(-n5cnnn5)nc4)C3=O)CC2)nc1 (stereo not drawn) [Example 66, 3-(6-(1H-tetrazol-1-yl)pyridin-3-yloxy)-1-(1-(5-ethylpyrimidin-2-yl)piperidin-4-yl)pyrrolidin-2-one]
- cAMP production in HEK-293 cells: 4.9 nmol
- Fold over baseline: 1.6

SMILES: CS(=O)(=O)c1cc(F)c(N[C@H]2CCCN(C3CCN(c4ccc(C(F)(F)F)cn4)CC3)C2=O)cc1F [Example 54, (S)-3-(2,5-difluoro-4-(methylsulfonyl)phen-ylamino)-1′-(5-(trifluoromethyl)pyridin-2-yl)-[1,4′-bipiperidin]-2-one]
- cAMP production in HEK-293 cells: 7.3 nmol
- Fold over baseline: 2.3

SMILES: O=C(c1ccc(O[C@H]2CCN(C3CCN(c4ncc(Cl)cc4F)CC3)C2=O)c(F)c1)N1CC[C@@H](O)C1 [Example 155, (S)-1-(1-(5-chloro-3-fluoropyridin-2-yl)piperidin-4-yl)-3-(2-fluoro-4-((R)-3-hydroxypyrrolidine-1-carbonyl)phenoxy)pyrrolidin-2-one]
- cAMP production in HEK-293 cells: 13.4 nmol
- Fold over baseline: 2.5
